Measurements: patent US20170002313A1, “COMPOSITIONS AND METHODS OF OBTAINING AND USING ENDODERM AND HEPATOCYTE CELLS” (Genentech Inc., priority 2012, published 2017)

What was measured:
phosphorylated mTOR = test: Phospho imaging assay (immunofluorescence); format: cell-based, human; conditions: 60 min; treated versus untreated cells, fluorescence intensity
Procedure: (§1) The effect of each compound on the PI3K/AKT/MTOR pathway was evaluated in two ways: via a kinase profile (FIG. 23) and via phospho imaging assays (i.e., immunofluorescence assays using antibodies specific for the phosphorylated form of mTOR or AKT). In vitro kinase profiling provided percent inhibition for numerous targets within the PI3K cell signaling pathway, and cell-based imaging assays were performed to directly visualize the effect of each compound on phosphorylated Akt and phosphorylated mTOR in the cell system used for differentiation.
(§2) In column 2 of Table 6, the PI3K alpha_MTOR score reflects the ability of a compound to inhibit the phosphorylation of PI3K alpha and mTOR, where + indicates minimal inhibition, and +++ indicates maximal inhibition. In column 3 of Table 6, the score indicates the ratio of phosphorylated mTOR (as measured by fluorescence intensity) in cells treated with a compound and the phosphorylated mTOR (as measured by fluorescence intensity) in cells that were not treated with the compound. In column 4 of Table 6, the score indicates the ratio of phosphorylated AKT (as measured by fluorescence intensity) in cells treated with a compound and the phosphorylated AKT (as measured by fluorescence intensity) in cells that were not treated with the compound. A reported effect of AKT inhibitors is an increase in phosphorylated AKT.

phosphorylated AKT = test: Phospho imaging assay (immunofluorescence); format: cell-based, human; conditions: 60 min; treated versus untreated cells, fluorescence intensity
Procedure: as §1, §2

mTOR = mTOR (Homo sapiens, UniProt P42345); test: In vitro kinase profile, PI3K alpha_MTOR score; format: biochemical
Procedure: as §1, §2

[1] = tested on: human embryonic stem cells (hESC); test: Endoderm differentiation of hESC with small-molecule inhibitors, flow cytometry of endoderm markers; format: cell-based; conditions: Activin A + 750 nM inhibitor, no Wnt3a, 3-day treatment
Description: A variety of cell-type specific markers were used to monitor the differentiation of stem cells into endoderm cells in the flow cytometry, fluorescence imaging, and immunoassay experiments described below. To detect endoderm conversion, hESC-derived cell samples were stained for the expression of SOX17, FoxA2, and CXCR4 proteins. SOX17, FoxA2, and CXCR4 are proteins that are expressed by endoderm cells but not by stem cells. To detect stem cells, cell samples were stained for the expression of OCT4, a protein expressed by stem cells but not by endoderm cells.
Undifferentiated human embryonic stem cells (hES) were maintained at a density of 40,000 cells/cm^2 on qualified matrigel (BD, #354277) in TesR™2 medium ([…]™ Technologies #05860). Cultures were manually passaged twice a week. To prepare for endoderm differentiation, hESC cells were passaged into TesR™2 medium overnight. The following day, the TesR™2 medium was replaced with basal medium (DMEM/F12+Glutamax (Invitrogen, #10565) supplemented with B27 (Invitrogen, #17504-044)). No human embryos were destroyed in the process of obtaining stem cells for these methods. Furthermore, the plurality of stem cells is not obtained by the prior destruction of human embryos.
Unless otherwise noted, basal medium was supplemented with […] human Activin A (Peprotech, #120-14). When indicated, basal medium was also supplemented with an effective amount of, e.g., a growth factor such as […] human Wnt3a (R&D, #5036-WN-010), an isoform-specific P13K inhibitor or an mTOR inhibitor. […]
To prepare the cells for flow cytometry, hESC-derived cells grown under endoderm differentiation conditions were dissociated using Accutase (Innovative Cell technologies, #AT-104). Briefly, the cells were washed once in PBS, incubated with Accutase for 10 minutes at room temperature, pelleted, and washed in cold PBS. The Accutase-dissociated hESC-derived cell samples were stained with anti-CXC4 antibody, anti-SOX17 antibody, or anti-FoxA2 antibody. Additional cell samples were stained with isotype control antibodies (e.g., IgG1 or IgG2).
The cells that were to be stained with anti-CXCR4 antibody were washed once with cold DPBS and then directly stained with mouse anti-human CD184 (CXCR4)-IgG2-PE (BD, #555974) for one hour at 4° C. The cells that were to be stained with anti-SOX17 antibody or anti-FoxA2 antibody were first fixed for 25 minutes at 4° C. in fixation buffer (BD, #554655) and permeabilized for 30 minutes on ice in Perm Buffer III (BD, #554656). Anti-SOX17 staining was performed using a mouse anti-SOX17 IgG1-PE antibody (BD, #561591) at room temperature for 30 minutes. Anti-FoxA2 staining was performed using a mouse anti-human FoxA2 IgG1 (BD, #561589) under the same conditions. A control sample of cells were fixed as described above and stained with either an anti-IgG1-PE antibody (BD, #554680) at room temperature for 30 minutes or an anti-IgG2-PE antibody (BD, #55574) for one hour at 4° C.
The antibody-stained hESC-derived cells were then analyzed via flow cytometry using a BD LSRFortessa™ cell analyzer. […] Approximately 1×10^6 cells were analyzed per sample.

PI3K alpha = PI3K alpha (Homo sapiens, UniProt P42336); test: In vitro kinase profile, PI3K alpha_MTOR score; format: biochemical
PI3K alpha, sequence (P42336 whole entry, species assumed): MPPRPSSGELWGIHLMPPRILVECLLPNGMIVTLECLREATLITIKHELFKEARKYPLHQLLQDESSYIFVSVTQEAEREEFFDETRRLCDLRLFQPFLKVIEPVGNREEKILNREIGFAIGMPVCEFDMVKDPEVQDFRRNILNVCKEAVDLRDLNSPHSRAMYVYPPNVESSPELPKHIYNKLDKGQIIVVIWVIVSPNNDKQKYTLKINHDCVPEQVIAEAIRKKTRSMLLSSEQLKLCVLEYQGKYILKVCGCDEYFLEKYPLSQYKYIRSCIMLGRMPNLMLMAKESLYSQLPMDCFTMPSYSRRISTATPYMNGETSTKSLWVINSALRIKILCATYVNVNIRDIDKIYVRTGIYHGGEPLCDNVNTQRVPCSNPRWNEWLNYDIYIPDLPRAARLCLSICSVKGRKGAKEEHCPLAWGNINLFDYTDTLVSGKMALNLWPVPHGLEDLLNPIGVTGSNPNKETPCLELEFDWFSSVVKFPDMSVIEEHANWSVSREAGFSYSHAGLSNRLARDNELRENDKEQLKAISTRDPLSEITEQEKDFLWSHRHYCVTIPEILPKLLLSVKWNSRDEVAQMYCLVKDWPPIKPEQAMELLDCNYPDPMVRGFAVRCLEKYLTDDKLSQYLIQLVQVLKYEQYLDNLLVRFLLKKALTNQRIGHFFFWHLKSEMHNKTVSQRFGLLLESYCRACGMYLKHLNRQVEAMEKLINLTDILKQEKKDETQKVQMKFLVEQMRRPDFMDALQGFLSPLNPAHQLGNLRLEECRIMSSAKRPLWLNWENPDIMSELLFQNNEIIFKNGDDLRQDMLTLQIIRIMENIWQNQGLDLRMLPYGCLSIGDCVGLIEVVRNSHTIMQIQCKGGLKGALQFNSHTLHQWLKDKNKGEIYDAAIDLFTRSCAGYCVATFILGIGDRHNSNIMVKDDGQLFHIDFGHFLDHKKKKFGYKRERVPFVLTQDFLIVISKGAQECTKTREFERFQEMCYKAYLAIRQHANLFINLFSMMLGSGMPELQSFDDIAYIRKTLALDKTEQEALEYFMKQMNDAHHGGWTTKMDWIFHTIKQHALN
PI3K alpha, sequence (P27986 whole entry partner, species assumed): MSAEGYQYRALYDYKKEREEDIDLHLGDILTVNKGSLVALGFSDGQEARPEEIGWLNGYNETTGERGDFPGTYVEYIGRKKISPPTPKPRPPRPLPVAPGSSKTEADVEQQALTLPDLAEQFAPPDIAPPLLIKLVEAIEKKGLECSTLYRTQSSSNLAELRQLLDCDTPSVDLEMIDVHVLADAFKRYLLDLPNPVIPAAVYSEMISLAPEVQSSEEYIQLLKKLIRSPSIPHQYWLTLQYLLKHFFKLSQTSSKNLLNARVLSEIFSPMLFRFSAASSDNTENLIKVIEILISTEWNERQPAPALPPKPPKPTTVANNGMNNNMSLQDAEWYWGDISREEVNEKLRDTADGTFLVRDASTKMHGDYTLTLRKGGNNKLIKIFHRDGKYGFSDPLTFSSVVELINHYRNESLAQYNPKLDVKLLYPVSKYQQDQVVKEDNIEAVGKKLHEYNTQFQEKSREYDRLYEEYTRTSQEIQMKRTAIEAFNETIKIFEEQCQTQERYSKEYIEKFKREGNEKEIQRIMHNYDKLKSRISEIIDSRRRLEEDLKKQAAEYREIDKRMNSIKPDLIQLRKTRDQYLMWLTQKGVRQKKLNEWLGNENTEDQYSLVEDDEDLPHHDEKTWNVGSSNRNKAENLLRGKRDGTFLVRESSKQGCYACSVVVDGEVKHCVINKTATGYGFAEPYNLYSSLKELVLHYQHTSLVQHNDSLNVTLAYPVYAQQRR
Procedure: as §1, §2

[2] = tested on: human embryonic stem cells (hESC); test: AlphaLISA of SOX17 and OCT4 in hESC-derived cells; format: cell-based; conditions: Activin A + 750 nM inhibitor, no Wnt3a, 3-day treatment
Procedure: To detect OCT4, the cells were washed three times in PBS and lysed with 50 ul AlphaLISA Lysis Buffer (Perkin Elmer, #AL003C). The lysis buffer was added to each cell sample and mixed with the cells five times. The cell samples were then incubated in a plate shaker at room temperature for 15 minutes. 5 μl of the lysate from each sample was then transferred to a 384 well OptiPlate (Perkin Elmer, #6005629). 5 μl of 10 ug/ml anti-rabbit acceptor bead (Perkin Elmer, #AL104M) and […] of 0.2 nM of rabbit anti-OCT4 antibody (Cell Signaling, #2890) was added to each well and incubated for 2 hours at room temperature. Following the incubation, 5 μl of 0.5 nM mouse anti-OCT4 antibody (BD, #611203) and […] of 0.5 nM biotinylated goat anti-mouse antibody (Invitrogen, #B2763) were added to each well and incubated at room temperature for 2 hours. Following the incubation, […] of streptavidin donor beads (Perkin Elmer, #6760002B) were added to each well and incubated for 30 minutes. The OptiPlates were then analyzed using an Envision Multilabel Plate Reader (Perkin Elmer, #2104-0010). All beads and antibodies were diluted as necessary in IAB Buffer (Perkin Elmer, #AL000C)+50 mM NaCl. Four replicate assays were performed.
To detect SOX17, the cells were washed three times in PBS and lysed with 50 ul Roche Complete Lysis Buffer (Roche, #04719956001). The lysis buffer was added to each cell sample and mixed with the cells five times. The cell samples were then incubated in a plate shaker at room temperature for 15 minutes. 5 μl of the lysate from each sample was then transferred to a 384 well OptiPlate (Perkin Elmer, #6005629). 5 μl of 10 ug/ml anti-rabbit acceptor bead (Perkin Elmer, #AL104M) and […] of 1 nM of rabbit anti-SOX17 antibody (Sigma, #AV33271) was added to each well and incubated for 2 hours at room temperature. Following the incubation, 5 μl of 0.5 nM mouse anti-SOX antibody (Sigma, #SAB3300093) and […] of 0.5 nM biotinylated goat anti-mouse antibody (Invitrogen, #B2763) were added to each well and incubated at room temperature for 2 hours. Following the incubation, […] of streptavidin donor beads (Perkin Elmer, #6760002B) were added to each well and incubated for 30 minutes. The OptiPlates were then analyzed using an Envision Multilabel Plate Reader (Perkin Elmer, #2104-0010). All beads and antibodies were diluted as necessary in IAB Buffer (Perkin Elmer, #AL000C) Four replicate assays were performed.
After a 3-day treatment, cells were harvested and stained with anti-SOX17 antibody as described above in preparation for AlphaLISA analysis.

Structure (SMILES)	Avg(Avg (Ph MTOR_60m_%C # Spots)) (phosphorylated mTOR)	Max(Avg (Ph AKT_60min_Intensity)) (phosphorylated AKT)	PI3K alpha_MTOR score: MTOR (mTOR)	endoderm conversion (SOX17, FoxA2, CXCR4 flow cytometry) [1]	PI3K alpha_MTOR score: PI3K alpha (PI3K alpha)	endoderm conversion (SOX17 AlphaLISA) [2]
Clc1ccc(C2(c3ccc(-c4cn[nH]c4)cc3)CCNCC2)cc1 [AT7867]	73.59 %C	122.15				
COc1ccc(-c2ccc3c(N4CCOC[C@@H]4C)nc(N4CCOC[C@@H]4C)nc3n2)cc1CO [AZD 8055]	15.8 %C		+++			
Cc1c(CN2CCN(C(=O)[C@H](C)O)CC2)sc2c(N3CCOCC3)nc(-c3cnc(N)nc3)nc12 [GDC0980]	9.99 %C					
CCn1c(-c2nonc2N)nc2c(C#CC(C)(C)O)ncc(OC[C@H]3CCCNC3)c21 [GSK690693]				higher degree of endoderm conversion		
COc1ncc(-c2ccc3nccc(-c4ccnnc4)c3c2)cc1NS(=O)(=O)c1ccc(F)cc1F [GSK2126458]	15.55 %C		PI3K alpha+++_MTOR+++		PI3K alpha+++_MTOR+++	
COc1ccc(-c2ccc3c(N4CCOCC4)nc(N4C[C@@H](C)O[C@@H](C)C4)nc3n2)cc1CO [KU0063794]	25.83 %C		+++	higher degree of endoderm conversion	+	better endoderm conversion than cells cultured in Activin A alone or cells cultured with an Akt inhibitor
Cn1c(=O)n(-c2ccc(C(C)(C)C#N)cc2)c2c3cc(-c4cnc5ccccc5c4)ccc3ncc21 [NVPBEZ235]	43.44 %C	88.3				
Nc1cc(C(F)(F)F)c(-c2cc(N3CCOCC3)nc(N3CCOCC3)n2)cn1 [NVPBKM120]	60.28 %C		PI3K alpha+++_MTOR+++		PI3K alpha+++_MTOR+++	
Oc1cccc(-c2nc(N3CCOCC3)c3oc4ncccc4c3n2)c1 [PI103]	5.59 %C		PI3K alpha+++_MTOR+++		PI3K alpha+++_MTOR+++	
COc1ccc2c(c1OC)N=C(NC(=O)c1cccnc1)N1CCN=C21 [PIK90]	42.17 %C	86.72			+++	
CN(C)C1CCN(C(=O)c2ccc(NC(=O)Nc3ccc(-c4nc(N5CCOCC5)nc(N5CCOCC5)n4)cc3)cc2)CC1 [PKI 587]	77.99 %C		+++			
CO[C@H]1C[C@@H]2CC[C@@H](C)[C@@](O)(O2)C(=O)C(=O)N2CCCC[C@H]2C(=O)O[C@H]([C@H](C)C[C@@H]2CC[C@@H](O)[C@H](OC)C2)CC(=O)[C@H](C)/C=C(\C)[C@@H](O)[C@@H](OC)C(=O)[C@H](C)C[C@H](C)/C=C/C=C/C=C/1C [Rapamycin]	57.77 %C					
CO[C@H]1C[C@@H]2CC[C@@H](C)[C@@](O)(O2)C(=O)C(=O)N2CCCC[C@H]2C(=O)O[C@H]([C@H](C)C[C@@H]2CC[C@@H](OC(=O)C(C)(CO)CO)[C@H](OC)C2)CC(=O)[C@H](C)/C=C(\C)[C@@H](O)[C@@H](OC)C(=O)[C@H](C)C[C@H](C)/C=C/C=C/C=C/1C [Temsirolimus]	42.12 %C					
CCC(=O)N1CCN(c2ccc(-n3c(=O)ccc4cnc5ccc(-c6cnc7ccccc7c6)cc5c43)cc2C(F)(F)F)CC1 [Torin1]	66.6 %C	89.48				
COC(=O)Nc1ccc(-c2nc(N3CCOCC3)c3cnn(C4CCN(C(=O)OC)CC4)c3n2)cc1 [WYE - 354]	10.49 %C	89.35	+++	higher degree of endoderm conversion		better endoderm conversion than cells cultured in Activin A alone or cells cultured with an Akt inhibitor
COC(=O)Nc1ccc(-c2nc(N3CCOCC3)c3cnn(C4CCN(Cc5cccnc5)CC4)c3n2)cc1 [WYE-687]	12.81 %C	86.65	+++		+	
CNC(=O)Nc1ccc(-c2nc(N3CC4CCC(C3)O4)c3cnn(C4CCC5(CC4)OCCO5)c3n2)cc1 [WYE-125132]	17.55 %C		+++			
COC[C@H]1OC(=O)c2coc3c2[C@@]1(C)C1=C(C3=O)[C@@H]2CCC(=O)[C@@]2(C)C[C@H]1OC(C)=O [Wortmannin]	10.47 %C					
